Consider six compounds from ChEMBL document CHEMBL1201862, “PubChem BioAssay data set” (2004).

Broadly, the EC50 is the concentration needed to bring the measured effect to its halfway point. In general, IC50 refers to the point on the concentration scale where inhibition reaches its midpoint. For orientation: Ki means a measure of affinity in units of concentration, obtained from inhibition or displacement. As usually defined, the AC50 is the midpoint of the concentration-response curve, whichever way the signal moves.

SMILES strings stand for the structures. Active and inactive are the calls of the source.

Assay [1] deals with Streptococcus. Kind of assay: GAS UMAA2166 growth inhibition – luminescence, BacTiterGlo, counter-screen for streptokinase expression inhibitor project, dose response (AID 1915).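 Also: potency for reduction of bacterial viability or growth.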 Format: functional, organism-based. Background: A counterscreen serves to expose hits that act by an unwanted route or on another target.
Assay [2] is described as follows: potency of ADAM10 substrate cleavage blockers – biochemical, QFRET, dose response (AID 743254).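 Also: ADAM10 enzyme with the DM2 quenched FRET peptide as substrate; EDANS fluorescence gain as the protease cuts the substrate; inhibitor potency against ADAM10 proteolytic activity.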
For assay [3], the target named is Disintegrin and metalloproteinase domain-containing protein 17 (Homo sapiens, UniProt P78536). Kind of assay: inhibition of ADAM17 substrate cleavage – biochemical, quenched FRET substrate, counter-screen for ADAM10 exosite inhibitor project, dose response (AID 743253).
Assay [4] deals with T1, Streptokinase A (Streptococcus pyogenes serotype M1, UniProt P10520).
T1 sequence (P10520 whole entry): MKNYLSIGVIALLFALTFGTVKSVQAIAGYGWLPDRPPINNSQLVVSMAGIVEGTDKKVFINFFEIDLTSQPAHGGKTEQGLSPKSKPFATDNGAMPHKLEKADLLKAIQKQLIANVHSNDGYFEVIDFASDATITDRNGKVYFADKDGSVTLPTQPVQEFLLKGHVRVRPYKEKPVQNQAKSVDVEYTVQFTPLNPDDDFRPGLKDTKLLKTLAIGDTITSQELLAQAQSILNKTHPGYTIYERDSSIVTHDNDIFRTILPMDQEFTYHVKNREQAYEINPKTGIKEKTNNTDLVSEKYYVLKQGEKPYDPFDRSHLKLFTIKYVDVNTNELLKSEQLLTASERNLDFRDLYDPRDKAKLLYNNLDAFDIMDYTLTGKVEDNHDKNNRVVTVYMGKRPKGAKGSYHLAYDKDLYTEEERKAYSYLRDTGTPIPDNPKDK
Kind of assay: viability-normalized secreted streptokinase activity reduction – plasminogen activation absorbance, OD405, dose response (AID 1914).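 Also: secreted streptokinase activity via plasminogen activation per viability signal from cell pellet.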 It is filed as functional, Streptococcus pyogenes M1 GAS.

Assay [5] concerns Streptococcus sp. 'group A'. Description: Streptococcus pyogenes SK(-)GAS viability under kanamycin – luminescence, BacTiterGlo, confirmation, counter-screen for streptokinase expression inhibitor project, dose response (AID 1900). Format: functional, organism-based.
For assay [6], the target named is fMet-Leu-Phe receptor (Homo sapiens, UniProt P21462). Description: formyl peptide receptor binders – dose response (AID 519). It is filed as functional.
The nature of assay [7]: blockers of FN fibrillogenesis by fibroblasts – AH1F cells, Alexa488-FN fluorescence, cherry-picks, dose response (AID 1035475). Format: functional, cell-based.
Assay [8] is described as follows: viability loss in A549 lung cancer cells – cell-based, cherry-picks, […], cytotoxicity control, dose response (AID 1053119). Format: functional.
Assay [9] in a line: toxicity to human hepatoma HepG2 cells – cell-based, cherry-picked samples, cytotoxicity control, dose response (AID 1159577). Format: functional.
A short description of assay [10]: viability loss in HepG2 hepatoma cells – cell-based, cherry-picks, set 5, cytotoxicity control, dose response (AID 1053118). It is filed as functional.
Assay [11] can be described thus: P. falciparum Dd2 growth inhibitors, dose response, SYBR Green, cherry-picked samples (AID 1159567). It is filed as functional, cell-based.
A short description of assay [12]: viability loss in HEK293 kidney cells – cell-based, cherry-picks, set 5, cytotoxicity control, dose response (AID 1053117). It is filed as functional.
The target in assay [13] is 1-phosphatidylinositol 4,5-bisphosphate phosphodiesterase beta-3 (Homo sapiens, UniProt Q01970). Description: Fluorescence-based biochemical high throughput dose response assay to identify inhibitors of phospholipase C isozymes (PLC-B3).
The target of assay [14] is 1-phosphatidylinositol 4,5-bisphosphate phosphodiesterase gamma-1 (Homo sapiens, UniProt P19174). Description: Counterscreen for inhibitors of phospholipase C isozymes (PLC-B3): Fluorescence-based biochemical high throughput dose response assay to identify inhibitors of phospholipase C isozymes (PLC-gamma1).
The nature of assay [15]: OVCAR-3 cell viability loss – plate reader, dry powder samples, PAX8 inhibitor project, dose response (AID 743044). Format: functional, cell-based.
Assay [16] is described as follows: OVCAR8 cell viability loss – plate reader, dry powder samples, PAX8 project, dose response (AID 743197). Particulars: OVCAR-8. Format: functional, cell-based.
A short description of assay [17]: IGROV1 cell killing – plate reader, dry powder samples, PAX8 inhibitor project, dose response (AID 743043). Format: functional, cell-based. As to conditions: IGROV-1.
The nature of assay [18]: toxicity toward immortalized ovarian surface epithelium – cell-based, plate reader, dry powder samples, cytotoxicity control for PAX8 inhibitor project, dose response (AID 743045). It is filed as functional.
Assay [19] addresses Paired box protein Pax-8 (Homo sapiens, UniProt Q06710). Description: PAX8 transcriptional activity inhibition in RMG-I – RMG-I cells, luciferase, cherry-pick, dose response (AID 687027).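 Also: luciferase reporter driven by Pax8 target thyroperoxidase promoter measured by SteadyGlo luminescence.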 It is filed as functional, cell-based.
Assay [20] is described as follows: blockade of melanocortin 4 receptor signaling – cell-based, plate reader, cherry pick, counter-screen for LGR2 antagonist project, dose response (AID 743444).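 Also: transfected HEK 293 cells stimulated with alpha-MSH peptide; potency of inhibitors of the alpha-MSH evoked signal.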 It is filed as functional.
Assay [21] in a line: viability loss in HEK293 cells – cell-based, plate reader, cherry-picked samples, cytotoxicity control, dose response (AID 743446). It is filed as functional.
Assay [22] is described as follows: toxicity toward HepG2 liver cells – cell-based, plate reader, cherry-pick, antagonist series, cytotoxicity control, dose response (AID 743416). Format: functional.
Assay [23] in a line: blockers of bursicon-stimulated LGR2 cAMP reporter – cell-based, HEK293, CRE-luciferase reporter, cherry pick, set 2, dose response (AID 743343).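 Also: transfected cells were stimulated with diluted bursicon conditioned medium after compound addition.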 Format: functional.
Assay [24] in a line: A549 cell cytotoxicity, dose response, cytotoxicity control, plate reader, cherry-pick, antagonist series (AID 743412). It is filed as functional, cell-based.
Assay [25] in a line: liver cell line viability loss – HepG2, luminescence plate reader, powder samples, set 2, cytotoxicity control, dose response (AID 651860). Format: functional, cell-based.
The nature of assay [26]: kidney cell line viability loss – HEK293T, luminescence plate reader, powder samples, set 4, cytotoxicity control, dose response (AID 651863). Format: functional, cell-based. As to conditions: HEK293.

Disintegrin and metalloproteinase domain-containing protein 17, sequence (P78536 whole entry, the tested form may be a part): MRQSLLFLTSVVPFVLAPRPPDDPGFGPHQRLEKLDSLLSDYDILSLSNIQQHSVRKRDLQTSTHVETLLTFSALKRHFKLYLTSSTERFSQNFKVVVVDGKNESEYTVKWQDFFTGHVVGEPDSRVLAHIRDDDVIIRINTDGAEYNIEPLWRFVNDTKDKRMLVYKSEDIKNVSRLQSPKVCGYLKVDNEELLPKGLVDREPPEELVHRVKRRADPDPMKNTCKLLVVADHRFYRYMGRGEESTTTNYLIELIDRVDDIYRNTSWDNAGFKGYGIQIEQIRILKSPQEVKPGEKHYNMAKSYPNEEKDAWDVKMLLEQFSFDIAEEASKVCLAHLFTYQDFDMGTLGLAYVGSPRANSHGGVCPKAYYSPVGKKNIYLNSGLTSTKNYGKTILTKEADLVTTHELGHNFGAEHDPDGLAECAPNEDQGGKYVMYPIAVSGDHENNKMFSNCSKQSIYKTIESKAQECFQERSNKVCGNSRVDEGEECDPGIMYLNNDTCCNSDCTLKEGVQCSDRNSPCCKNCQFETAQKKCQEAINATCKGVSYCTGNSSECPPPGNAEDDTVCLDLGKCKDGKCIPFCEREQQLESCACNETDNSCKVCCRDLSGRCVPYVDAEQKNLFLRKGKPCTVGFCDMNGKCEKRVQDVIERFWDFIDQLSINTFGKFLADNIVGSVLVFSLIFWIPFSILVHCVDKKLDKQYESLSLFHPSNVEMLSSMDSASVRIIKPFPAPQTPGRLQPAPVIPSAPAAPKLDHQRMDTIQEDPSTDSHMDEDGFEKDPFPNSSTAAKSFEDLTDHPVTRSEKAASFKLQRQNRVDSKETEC
Paired box protein Pax-8, sequence (Q06710 whole entry): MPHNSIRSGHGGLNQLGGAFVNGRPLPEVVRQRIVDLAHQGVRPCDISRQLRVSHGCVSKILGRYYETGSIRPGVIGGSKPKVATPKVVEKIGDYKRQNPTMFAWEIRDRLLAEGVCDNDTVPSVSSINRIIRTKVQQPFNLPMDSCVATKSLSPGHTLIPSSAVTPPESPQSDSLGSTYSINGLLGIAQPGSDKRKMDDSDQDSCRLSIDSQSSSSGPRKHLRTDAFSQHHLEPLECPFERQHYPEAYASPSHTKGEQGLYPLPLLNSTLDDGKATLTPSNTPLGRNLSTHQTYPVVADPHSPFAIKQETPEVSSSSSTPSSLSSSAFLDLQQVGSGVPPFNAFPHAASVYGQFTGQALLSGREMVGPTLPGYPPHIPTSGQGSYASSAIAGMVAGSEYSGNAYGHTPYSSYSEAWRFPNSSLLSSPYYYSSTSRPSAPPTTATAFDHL
1-phosphatidylinositol 4,5-bisphosphate phosphodiesterase beta-3, sequence (Q01970 whole entry): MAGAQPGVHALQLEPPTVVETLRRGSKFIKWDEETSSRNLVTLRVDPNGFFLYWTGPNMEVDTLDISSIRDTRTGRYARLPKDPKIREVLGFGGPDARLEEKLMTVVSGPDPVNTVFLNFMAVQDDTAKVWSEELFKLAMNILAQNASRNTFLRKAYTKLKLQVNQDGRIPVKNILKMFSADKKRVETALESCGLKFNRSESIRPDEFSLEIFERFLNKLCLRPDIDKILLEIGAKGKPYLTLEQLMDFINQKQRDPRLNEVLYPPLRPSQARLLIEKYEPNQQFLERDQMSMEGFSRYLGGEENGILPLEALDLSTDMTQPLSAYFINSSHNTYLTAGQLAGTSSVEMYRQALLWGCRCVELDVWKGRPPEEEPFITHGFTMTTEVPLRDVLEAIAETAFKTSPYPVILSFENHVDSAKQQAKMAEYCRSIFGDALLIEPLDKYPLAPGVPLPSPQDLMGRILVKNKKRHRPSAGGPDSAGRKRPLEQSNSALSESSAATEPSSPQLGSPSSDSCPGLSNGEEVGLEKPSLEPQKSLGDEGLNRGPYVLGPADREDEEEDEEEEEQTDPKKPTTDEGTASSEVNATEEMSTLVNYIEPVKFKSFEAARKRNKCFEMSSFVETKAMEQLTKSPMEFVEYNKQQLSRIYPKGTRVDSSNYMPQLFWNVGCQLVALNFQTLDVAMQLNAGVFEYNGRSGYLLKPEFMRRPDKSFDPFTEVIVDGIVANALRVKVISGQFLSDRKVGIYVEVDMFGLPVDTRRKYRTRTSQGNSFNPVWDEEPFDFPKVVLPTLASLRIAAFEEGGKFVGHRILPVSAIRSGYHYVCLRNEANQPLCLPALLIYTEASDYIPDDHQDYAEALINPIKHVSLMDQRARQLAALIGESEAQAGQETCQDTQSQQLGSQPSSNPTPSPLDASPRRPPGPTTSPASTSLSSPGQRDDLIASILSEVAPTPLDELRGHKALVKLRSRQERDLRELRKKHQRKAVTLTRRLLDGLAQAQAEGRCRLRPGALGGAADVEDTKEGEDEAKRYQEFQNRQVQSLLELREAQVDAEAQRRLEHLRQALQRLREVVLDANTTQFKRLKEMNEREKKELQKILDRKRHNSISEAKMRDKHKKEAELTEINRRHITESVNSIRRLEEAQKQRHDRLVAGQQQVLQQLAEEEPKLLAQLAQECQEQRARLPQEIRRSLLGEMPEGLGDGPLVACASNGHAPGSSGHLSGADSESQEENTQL
1-phosphatidylinositol 4,5-bisphosphate phosphodiesterase gamma-1, sequence (P19174 whole entry): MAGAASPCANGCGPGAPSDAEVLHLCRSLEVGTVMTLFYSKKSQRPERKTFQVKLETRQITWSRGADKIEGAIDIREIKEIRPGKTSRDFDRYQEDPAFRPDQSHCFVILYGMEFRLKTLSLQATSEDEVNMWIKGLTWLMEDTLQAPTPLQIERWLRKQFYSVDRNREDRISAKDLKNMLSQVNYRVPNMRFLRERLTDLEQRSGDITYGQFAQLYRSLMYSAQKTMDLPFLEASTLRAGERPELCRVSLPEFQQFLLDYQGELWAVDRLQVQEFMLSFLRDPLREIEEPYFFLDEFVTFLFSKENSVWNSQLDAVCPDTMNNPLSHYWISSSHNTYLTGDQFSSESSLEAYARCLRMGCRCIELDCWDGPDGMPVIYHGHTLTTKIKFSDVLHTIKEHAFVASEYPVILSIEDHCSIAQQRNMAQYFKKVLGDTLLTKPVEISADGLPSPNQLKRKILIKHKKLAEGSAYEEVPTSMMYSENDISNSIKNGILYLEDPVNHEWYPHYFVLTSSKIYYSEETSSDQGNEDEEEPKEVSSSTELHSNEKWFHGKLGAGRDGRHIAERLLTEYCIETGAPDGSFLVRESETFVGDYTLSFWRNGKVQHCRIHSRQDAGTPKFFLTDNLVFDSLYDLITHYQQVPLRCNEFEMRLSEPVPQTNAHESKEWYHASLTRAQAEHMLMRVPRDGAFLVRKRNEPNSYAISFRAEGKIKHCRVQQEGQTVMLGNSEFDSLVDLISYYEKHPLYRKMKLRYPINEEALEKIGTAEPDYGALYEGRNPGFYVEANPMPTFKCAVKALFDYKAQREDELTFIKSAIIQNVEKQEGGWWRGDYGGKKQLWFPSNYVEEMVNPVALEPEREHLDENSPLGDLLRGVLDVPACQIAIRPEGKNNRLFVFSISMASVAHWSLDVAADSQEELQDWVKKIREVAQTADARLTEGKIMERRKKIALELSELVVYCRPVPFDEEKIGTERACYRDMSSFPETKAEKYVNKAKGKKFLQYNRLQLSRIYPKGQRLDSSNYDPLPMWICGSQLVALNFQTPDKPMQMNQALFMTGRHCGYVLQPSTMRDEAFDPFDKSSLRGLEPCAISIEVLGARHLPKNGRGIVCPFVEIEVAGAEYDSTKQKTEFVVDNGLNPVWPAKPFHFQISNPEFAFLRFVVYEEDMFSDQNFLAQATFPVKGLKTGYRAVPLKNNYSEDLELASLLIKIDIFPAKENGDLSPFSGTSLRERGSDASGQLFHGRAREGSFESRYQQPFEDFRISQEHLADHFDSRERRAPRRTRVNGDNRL
fMet-Leu-Phe receptor, sequence (P21462 whole entry): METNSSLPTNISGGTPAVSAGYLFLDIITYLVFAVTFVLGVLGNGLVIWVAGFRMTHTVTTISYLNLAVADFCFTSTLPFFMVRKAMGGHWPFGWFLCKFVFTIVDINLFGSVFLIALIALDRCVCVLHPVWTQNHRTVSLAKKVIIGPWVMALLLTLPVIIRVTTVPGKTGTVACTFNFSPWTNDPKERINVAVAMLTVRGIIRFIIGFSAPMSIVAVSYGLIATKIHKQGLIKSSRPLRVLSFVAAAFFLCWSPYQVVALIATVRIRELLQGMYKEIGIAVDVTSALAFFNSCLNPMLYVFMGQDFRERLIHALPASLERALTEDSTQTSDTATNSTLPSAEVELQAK

Consider `O=C(OCc1ccc(-c2ccccc2)cc1)c1cccc(O)c1`, for which the EC50 was 19 µM (active) in assay [1], 22.4 µM (active) in assay [4] and 11.4 µM (active) in [5]. Further, the IC50 is > 7.72 µM (active) in assay [2] and > 69.5 µM (inactive) in assay [3].
For `COc1ccc(-c2cn3cccnc3n2)cc1NC(=O)C1CCCC1`, in [6], the Ki is > 66.7 µM (inactive).
Consider `CO[C@H]1CN(C)C(=O)c2ccc(NC(=O)c3ccc(-c4ccccc4)cc3)cc2OC[C@@H](C)NC[C@@H]1C`, for which the AC50 in assay [7] was > 70 µM (inactive); in assay [8], 13.4 µM (active); in assay [9], 7.74 µM (active); in assay [10], 10.9 µM (active); in [11], 2.02 µM (active); in [12], 16.3 µM (active).
`O=[N+]([O-])c1ccc2[nH]cc(S(=O)(=O)N3CCN(c4cccc(Cl)c4)CC3)c2c1`: the IC50 in assay [13] and in assay [14] was > 122 µM (inactive) each time.
For the compound `Cn1cnc(S(=O)(=O)N2C[C@@H]3N[C@H](C2)[C@@H]3c2ccc(-c3ccccc3F)cc2)c1`, the AC50 in assay [15] is 22 µM (active); in assay [16], 24.5 µM (active); in assay [17], 27.1 µM (active); in [18], 25.9 µM (active); in assay [19] it was 4.26 µM (active); in [20], 6.25 µM (active). Besides, the AC50 in assay [21] was > 52 µM (inactive); in assay [11], 3.72 µM (active); in assay [22] it was 28.2 µM (active); in assay [23], 18.9 µM (active); in assay [24], 11 µM (active).
As to `Cc1ccc(S(=O)(=O)NC2=C/C(=N\[C@@H](C)C(=O)OC(C)(C)C)C(=O)c3ccccc32)c(C)c1`, the figures for the AC50 in assay [25] and in assay [26] were 43 µM (active) and 16.3 µM (active), respectively.
